target: H1047R PIK3CA enzyme (Homo sapiens, UniProt P42336, H1047R); test: ADP-Glo Biochemical PIK3CA Kinase Assay
Sequence (P42336 whole entry H1047R): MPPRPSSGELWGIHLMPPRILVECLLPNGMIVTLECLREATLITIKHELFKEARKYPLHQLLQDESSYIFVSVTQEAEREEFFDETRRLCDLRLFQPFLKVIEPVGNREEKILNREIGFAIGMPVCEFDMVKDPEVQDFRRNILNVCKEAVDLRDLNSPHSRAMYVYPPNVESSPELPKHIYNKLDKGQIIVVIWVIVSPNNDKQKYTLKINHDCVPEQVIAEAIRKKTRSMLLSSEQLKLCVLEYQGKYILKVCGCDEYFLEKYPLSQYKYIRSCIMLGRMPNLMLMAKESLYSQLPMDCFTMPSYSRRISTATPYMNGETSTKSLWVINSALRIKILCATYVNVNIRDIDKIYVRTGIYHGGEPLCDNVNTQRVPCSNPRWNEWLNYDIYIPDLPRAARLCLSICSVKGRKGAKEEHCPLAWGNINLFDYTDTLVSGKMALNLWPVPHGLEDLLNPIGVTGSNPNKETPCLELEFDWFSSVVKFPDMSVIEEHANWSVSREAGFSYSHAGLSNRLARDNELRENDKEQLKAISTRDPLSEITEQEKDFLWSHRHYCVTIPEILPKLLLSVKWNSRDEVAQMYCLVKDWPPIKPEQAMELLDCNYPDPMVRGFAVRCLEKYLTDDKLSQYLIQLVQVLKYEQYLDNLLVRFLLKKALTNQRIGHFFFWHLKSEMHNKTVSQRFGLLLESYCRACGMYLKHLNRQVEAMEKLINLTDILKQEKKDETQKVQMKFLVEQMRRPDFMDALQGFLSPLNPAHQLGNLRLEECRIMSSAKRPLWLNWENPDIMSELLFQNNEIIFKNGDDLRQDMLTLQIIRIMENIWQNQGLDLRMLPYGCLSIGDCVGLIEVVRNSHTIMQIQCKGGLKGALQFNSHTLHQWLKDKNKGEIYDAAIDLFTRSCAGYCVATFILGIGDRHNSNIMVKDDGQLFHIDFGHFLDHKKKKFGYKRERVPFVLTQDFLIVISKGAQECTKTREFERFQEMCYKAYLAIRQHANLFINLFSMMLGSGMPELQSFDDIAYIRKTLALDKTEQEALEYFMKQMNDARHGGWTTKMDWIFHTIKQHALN
Sequence (P27986 whole entry partner): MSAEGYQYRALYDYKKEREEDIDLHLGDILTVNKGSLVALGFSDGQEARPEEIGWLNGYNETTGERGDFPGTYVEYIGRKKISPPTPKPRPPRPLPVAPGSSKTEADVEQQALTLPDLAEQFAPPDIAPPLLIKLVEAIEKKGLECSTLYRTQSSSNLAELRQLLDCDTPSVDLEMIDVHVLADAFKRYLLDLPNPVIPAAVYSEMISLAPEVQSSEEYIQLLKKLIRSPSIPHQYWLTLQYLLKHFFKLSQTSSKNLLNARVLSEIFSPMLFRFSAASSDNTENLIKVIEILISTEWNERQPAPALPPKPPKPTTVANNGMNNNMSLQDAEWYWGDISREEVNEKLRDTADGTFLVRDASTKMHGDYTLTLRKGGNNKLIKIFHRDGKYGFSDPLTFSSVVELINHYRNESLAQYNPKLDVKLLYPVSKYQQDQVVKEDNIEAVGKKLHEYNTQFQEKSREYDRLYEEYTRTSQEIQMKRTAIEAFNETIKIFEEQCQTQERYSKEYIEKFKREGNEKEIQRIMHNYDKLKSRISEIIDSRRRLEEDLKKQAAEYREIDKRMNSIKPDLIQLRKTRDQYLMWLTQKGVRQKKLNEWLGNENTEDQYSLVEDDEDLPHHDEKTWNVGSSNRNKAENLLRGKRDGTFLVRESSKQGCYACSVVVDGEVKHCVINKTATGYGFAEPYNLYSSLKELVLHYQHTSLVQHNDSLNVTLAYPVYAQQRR

Row | Structure (SMILES) | IC50
1 | O=C(Nc1cc(NC2COC2)cc2c1[C@@H](c1cc(F)ccc1Cl)NC2=O)c1cc(F)cc(C(F)(F)F)c1 [Compound I-830] | 1000 to 10000 nM
2 | O=C(Nc1cc(Br)cc2c1C(c1cc(F)ccc1Cl)NC2=O)c1cc(F)cc(OC(F)(F)F)c1 (stereo not drawn) [Compound I-831] | 100 to 500 nM
3 | O=C(Nc1cc(Br)cc2c1C(c1cc(F)ccc1Cl)NC2=O)c1cc(F)cc([N+](=O)[O-])c1 (stereo not drawn) [Compound I-832] | ≤ 100 nM
4 | O=C(Nc1cc(Br)cc2c1C(c1cc(F)ccc1Cl)NC2=O)c1cc(F)cc(OC(F)F)c1 (stereo not drawn) [Compound I-833] | 100 to 500 nM
5 | COc1c(Cl)cc(F)cc1C(=O)Nc1cc(Br)cc2c1C(c1cc(F)ccc1Cl)NC2=O (stereo not drawn) [Compound I-834] | 1000 to 10000 nM
6 | O=C(Nc1cc(Br)cc2c1C(c1cc(F)ccc1Cl)NC2=O)c1cc(F)cc(C(F)F)c1 (stereo not drawn) [Compound I-835] | 100 to 500 nM
7 | O=C(Nc1cc(Br)cc2c1C(c1cc(F)ccc1Cl)NC2=O)c1cc(F)cc(Cl)c1F (stereo not drawn) [Compound I-836] | 500 to 1000 nM
8 | O=C(Nc1cc(Br)cc2c1C(c1cc(F)ccc1Cl)NC2=O)c1cc(F)ccc1C(F)F (stereo not drawn) [Compound I-837] | 1000 to 10000 nM
9 | O=C(Nc1cc(-c2cnc[nH]2)cc2c1C(c1cc(F)ccc1Cl)NC2=O)c1cc(F)cc(C(F)(F)F)c1 (stereo not drawn) [Compound I-838] | ≤ 100 nM
10 | CNc1cc(C(F)(F)F)cc(C(=O)Nc2cccc3c2C(c2cc(F)ccc2Cl)NC3=O)n1 (stereo not drawn) [Compound I-839] | 10000 to 100000 nM
11 | Cc1ccccc1CC1NC(=O)c2cccc(NC(=O)c3cc(F)cc(C(F)(F)F)c3)c21 (stereo not drawn) [Compound I-841] | 1000 to 10000 nM
12 | O=C1NC(c2cc(F)ccc2Cl)c2c1cccc2-c1nc2c(C(F)(F)F)cc(F)cc2[nH]1 (stereo not drawn) [Compound I-842] | 100 to 500 nM
13 | Nc1c(Cl)cc(F)cc1C(=O)Nc1cc(Br)cc2c1C(c1cc(F)ccc1Cl)NC2=O (stereo not drawn) [Compound I-843] | 100 to 500 nM
14 | O=C(Nc1cccc2c1C(c1ccc3cn[nH]c3c1)NC2=O)c1cc(F)cc(C(F)(F)F)c1 (stereo not drawn) [Compound I-844] | 10000 to 100000 nM
15 | O=C(Nc1cc(Br)cc2c1C(c1cc(F)ccc1Cl)NC2=O)c1cc(F)cc(Cl)c1O (stereo not drawn) [Compound I-845] | 500 to 1000 nM
16 | O/N=C(\Nc1cccc2c1C(c1cc(F)ccc1Cl)NC2=S)c1cc(F)cc(C(F)(F)F)c1 (stereo not drawn) [Compound I-846] | 500 to 1000 nM
17 | O=C(Nc1cc(Br)c(Cl)c2c1C(c1cc(F)ccc1Cl)NC2=O)c1cc(F)cc(C(F)(F)F)c1 (stereo not drawn) [Compound I-847] | ≤ 100 nM
18 | CC(C)(O)CN(CC(C)(C)O)c1cc(NC(=O)c2cc(F)cc(C(F)(F)F)c2)c2c(c1)C(=O)NC2c1cc(F)ccc1Cl (stereo not drawn) [Compound I-848] | 1000 to 10000 nM
19 | Cc1ncc(-c2cc(NC(=O)c3cc(F)cc(Cl)c3)c3c(c2)C(=O)NC3c2cc(F)ccc2Cl)cn1 (stereo not drawn) [Compound I-849] | ≤ 100 nM
20 | COc1cc(C)c(C(=O)Nc2cc(Br)cc3c2C(c2cc(F)ccc2Cl)NC3=O)cn1 (stereo not drawn) [Compound I-850] | 10000 to 100000 nM
21 | O=C(Nc1cc(-c2ccc3c(c2)OCCCO3)cc2c1C(c1cc(F)ccc1Cl)NC2=O)c1cc(F)cc(C(F)(F)F)c1 (stereo not drawn) [Compound I-851] | ≤ 100 nM

Row | Structure (SMILES) | IC50
22 | O=C(Nc1cc(-c2cncc3ccccc23)cc2c1C(c1cc(F)ccc1Cl)NC2=O)c1cc(F)cc(C(F)(F)F)c1 (stereo not drawn) [Compound I-852] | ≤ 100 nM
23 | Cn1ccc2cc(-c3cc(NC(=O)c4cc(F)cc(C(F)(F)F)c4)c4c(c3)C(=O)NC4c3cc(F)ccc3Cl)ccc21 (stereo not drawn) [Compound I-853] | 100 to 500 nM
24 | COc1cncc(-c2cc(NC(=O)c3cc(F)cc(C(F)(F)F)c3)c3c(c2)C(=O)NC3c2cc(F)ccc2Cl)c1 (stereo not drawn) [Compound I-854] | ≤ 100 nM
25 | O=C(Nc1cc(-c2ccc3cc[nH]c3c2)cc2c1C(c1cc(F)ccc1Cl)NC2=O)c1cc(F)cc(C(F)(F)F)c1 (stereo not drawn) [Compound I-855] | 100 to 500 nM
26 | CC1(n2[nH]c(=O)c3cccc(NC(=O)c4cc(F)cc(C(F)(F)F)c4)c32)CCCCC1 [Compound I-857] | 1000 to 10000 nM
27 | COc1c(F)cc(Cl)cc1C(=O)Nc1cc(Br)cc2c1C(c1cc(F)ccc1Cl)NC2=O (stereo not drawn) [Compound I-858] | 1000 to 10000 nM
28 | O=C(Nc1cc(Br)cc2c1C(c1cc(F)ccc1Cl)NC2=O)c1cc(Cl)ccc1OC(F)(F)F (stereo not drawn) [Compound I-859] | 1000 to 10000 nM
29 | O=C(Nc1cccc2c1[C@@H](c1cc(F)ccc1Cl)NC2=O)c1cc(F)cc(C(F)(F)F)c1 [Compound I-860] | 1000 to 10000 nM
30 | O=C1CCC(c2cc(NC(=O)c3cc(F)cc(C(F)(F)F)c3)c3c(c2)C(=O)NC3c2cc(F)ccc2Cl)N1 (stereo not drawn) [Compound I-861] | ≤ 100 nM
31 | O=C1NC(c2cc(F)ccc2Cl)c2c(Nc3ncnc4ccccc34)cc(Br)cc21 (stereo not drawn) [Compound I-864] | 10000 to 100000 nM
32 | O=C(Nc1cc(-c2ccn[nH]2)cc2c1[C@@H](c1cc(F)ccc1Cl)NC2=O)c1cc(F)cc(C(F)(F)F)c1 [Compound I-866] | 1000 to 10000 nM
33 | Cn1ccc(Nc2cc(NC(=O)c3cc(F)cc(C(F)(F)F)c3)c3c(c2)C(=O)NC3c2cc(F)ccc2Cl)n1 (stereo not drawn) [Compound I-867] | ≤ 100 nM
34 | N#CC1(CNc2cc(NC(=O)c3cc(F)cc(C(F)(F)F)c3)c3c(c2)C(=O)N[C@@H]3c2cc(F)ccc2Cl)CC1 [Compound I-869] | 100 to 500 nM
35 | Cn1cc2c(C(=O)Nc3cccc4c3C(c3cc(F)ccc3Cl)NC4=O)cc(F)cc2n1 (stereo not drawn) [Compound I-870] | 10000 to 100000 nM
36 | Cn1ncc2c(C(=O)Nc3cccc4c3C(c3cc(F)ccc3Cl)NC4=O)cc(F)cc21 (stereo not drawn) [Compound I-871] | 10000 to 100000 nM
37 | O=C(Nc1cccc2c1C(c1cc(F)ccc1Cl)NC2=O)c1cc(F)ccc1NC1CCC1 (stereo not drawn) [Compound I-872] | 1000 to 10000 nM
38 | CC1(C)CC(COc2cc(NC(=O)c3cc(F)cc(C(F)(F)F)c3)c3c(c2)C(=O)NC3c2cc(F)ccc2Cl)O1 (stereo not drawn) [Compound I-873] | 100 to 500 nM
39 | CNc1cc(C2NC(=O)c3cccc(NC(=O)c4cc(F)cc(C(F)(F)F)c4)c32)ccn1 (stereo not drawn) [Compound I-874] | 10000 to 100000 nM
40 | Cc1ccc(C(=O)Nc2cc(Br)cc3c2C(c2cc(F)ccc2Cl)NC3=O)cc1C(F)(F)F (stereo not drawn) [Compound I-875] | 100 to 500 nM
41 | O=C1NC(c2cc(F)ccc2Cl)c2c(NC(=O)C34CC5CC(CC(C5)C3)C4)cccc21 (stereo not drawn) [Compound I-876] | 100 to 500 nM
42 | COc1ccc(C(=O)Nc2cc(Br)cc3c2C(c2cc(F)ccc2Cl)NC3=O)cc1C(F)(F)F (stereo not drawn) [Compound I-877] | 500 to 1000 nM

Row | Structure (SMILES) | IC50
43 | Cn1cc(-c2cc(NC(=O)c3cc(F)cc(C(F)(F)F)c3)c3c(c2)C(=O)NC3c2cc(F)ccc2Cl)nn1 (stereo not drawn) [Compound I-879] | ≤ 100 nM
44 | Cn1c(Nc2cccc3c2C(c2cc(F)ccc2Cl)NC3=O)nnc1C1CC1 (stereo not drawn) [Compound I-880] | 10000 to 100000 nM
45 | COc1ncc(-c2cc(NC(=O)c3cc(F)cc(C(F)(F)F)c3)c3c(c2)C(=O)N[C@@H]3c2cc(F)ccc2Cl)cn1 [Compound I-881] | 1000 to 10000 nM
46 | O=C(Nc1cc(-c2cnc3nccn3c2)cc2c1[C@@H](c1cc(F)ccc1Cl)NC2=O)c1cc(F)cc(C(F)(F)F)c1 [Compound I-883] | 1000 to 10000 nM
47 | Nc1ncc(-c2cc(NC(=O)c3cc(F)cc(C(F)(F)F)c3)c3c(c2)C(=O)NC3c2cc(F)ccc2Cl)cn1 (stereo not drawn) [Compound I-885] | ≤ 100 nM
48 | N#Cc1ncc(-c2cc(NC(=O)c3cc(F)cc(C(F)(F)F)c3)c3c(c2)C(=O)NC3c2cc(F)ccc2Cl)cn1 (stereo not drawn) [Compound I-886] | ≤ 100 nM
49 | O=C(Nc1cc(-c2cccnc2)cc2c1C(c1cc(F)ccc1Cl)NC2=O)c1cc(F)cc(C(F)(F)F)c1 (stereo not drawn) [Compound I-888] | ≤ 100 nM
50 | Cn1ccc(-c2cc(NC(=O)c3cc(F)cc(C(F)(F)F)c3)c3c(c2)C(=O)NC3c2cc(F)ccc2Cl)cc1=O (stereo not drawn) [Compound I-889] | ≤ 100 nM
51 | Cc1cnccc1-c1cc(NC(=O)c2cc(F)cc(C(F)(F)F)c2)c2c(c1)C(=O)NC2c1cc(F)ccc1Cl (stereo not drawn) [Compound I-890] | ≤ 100 nM
52 | COc1cccc(-c2cc(NC(=O)c3cc(F)cc(C(F)(F)F)c3)c3c(c2)C(=O)NC3c2cc(F)ccc2Cl)n1 (stereo not drawn) [Compound I-891] | ≤ 100 nM
53 | O=C(Nc1cc(-c2cccnc2C(F)(F)F)cc2c1C(c1cc(F)ccc1Cl)NC2=O)c1cc(F)cc(C(F)(F)F)c1 (stereo not drawn) [Compound I-892] | ≤ 100 nM
54 | O=C(Nc1cc(-c2ccc3ncccc3c2)cc2c1[C@@H](c1cc(F)ccc1Cl)NC2=O)c1cc(F)cc(C(F)(F)F)c1 [Compound I-893] | 1000 to 10000 nM
55 | Cc1ncc(-c2cc(NC(=O)c3cc(F)cc(Cl)c3)c3c(c2)C(=O)N[C@@H]3c2cc(F)ccc2Cl)cn1 [Compound I-895] | 10000 to 100000 nM
56 | Cc1ncc(-c2cc(NC(=O)c3cc(F)cc(Cl)c3)c3c(c2)C(=O)N[C@H]3c2cc(F)ccc2Cl)cn1 [Compound I-896] | ≤ 100 nM
57 | CC(C)(O)CNc1cc(NC(=O)c2cc(F)cc(C(F)(F)F)c2)c2c(c1)C(=O)N[C@H]2c1cc(F)ccc1Cl [Compound I-899] | 10000 to 100000 nM
58 | O=C(Nc1cccc2c1C(c1ccccc1C1COC1)NC2=O)c1cc(F)cc(C(F)(F)F)c1 (stereo not drawn) [Compound I-907] | 10000 to 100000 nM
59 | O=C(Nc1cc(Br)cc2c1C(c1cc(F)ccc1Cl)NC2=O)c1cc(C(F)(F)F)cc(F)c1F (stereo not drawn) [Compound I-908] | 1000 to 10000 nM
60 | O=C(Nc1cc(Br)cc2c1C(c1cc(F)ccc1Cl)NC2=O)c1cncc(Cl)c1 (stereo not drawn) [Compound I-909] | 1000 to 10000 nM
61 | N#Cc1cc(F)cc(C(=O)Nc2cc(Br)cc3c2C(c2cc(F)ccc2Cl)NC3=O)c1 (stereo not drawn) [Compound I-910] | 1000 to 10000 nM
62 | O=C(Nc1cc(Br)cc2c1C(c1cc(F)ccc1Cl)NC2=O)c1cc(Cl)ccc1C(F)F (stereo not drawn) [Compound I-911] | 1000 to 10000 nM
63 | CS(=O)(=O)c1cc(F)cc(C(=O)Nc2cc(Br)cc3c2C(c2cc(F)ccc2Cl)NC3=O)c1 (stereo not drawn) [Compound I-912] | 10000 to 100000 nM
